From patent US20110077248A1, “IMIDAZOPYRIDINE AND RELATED ANALOGS AS SIRTUIN MODULATORS” (Sirtris Pharmaceuticals, Inc., priority 2008, published 2011)

Target: T1, SIRT1 (Homo sapiens, UniProt Q96EB6)
T1 construct: His-tag (N); made in house; host or cells: E. coli BL21(DE3), T7-promoter vector
T1 sequence (Q96EB6 1-747): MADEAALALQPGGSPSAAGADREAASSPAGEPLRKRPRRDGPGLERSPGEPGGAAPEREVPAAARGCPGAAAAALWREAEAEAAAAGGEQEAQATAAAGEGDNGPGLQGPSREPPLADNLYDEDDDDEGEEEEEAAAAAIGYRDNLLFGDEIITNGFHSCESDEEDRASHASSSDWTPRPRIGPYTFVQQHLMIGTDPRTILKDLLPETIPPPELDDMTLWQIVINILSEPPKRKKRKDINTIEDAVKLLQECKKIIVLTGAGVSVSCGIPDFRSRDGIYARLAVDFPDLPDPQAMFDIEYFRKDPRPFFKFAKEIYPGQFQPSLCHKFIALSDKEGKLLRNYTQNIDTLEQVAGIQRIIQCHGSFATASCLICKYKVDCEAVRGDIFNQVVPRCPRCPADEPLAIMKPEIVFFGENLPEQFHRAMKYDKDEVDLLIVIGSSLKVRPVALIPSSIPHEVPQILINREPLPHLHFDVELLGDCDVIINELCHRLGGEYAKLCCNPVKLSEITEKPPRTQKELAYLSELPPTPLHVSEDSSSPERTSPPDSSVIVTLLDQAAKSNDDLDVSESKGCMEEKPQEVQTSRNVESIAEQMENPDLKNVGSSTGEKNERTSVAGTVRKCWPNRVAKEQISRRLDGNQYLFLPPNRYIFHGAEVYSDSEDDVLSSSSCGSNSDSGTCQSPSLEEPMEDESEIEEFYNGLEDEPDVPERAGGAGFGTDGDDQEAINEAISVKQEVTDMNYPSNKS
Assay: Mass spectrometry based assay for modulators of SIRT1 activity (deacetylation of p53-based acetylated peptide)
Type: biochemical
Conditions: for EC1.5: concentration of test compound that results in 150% activation of SIRT1, 0.5 μM peptide substrate, 120 μM βNAD+, 10 nM SIRT1, 25 min, 25° C.; for Emax: percent maximum fold activation of SIRT1
In short: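 Reaction: 10 nM His-tagged human SIRT1 (E. coli-expressed) with 0.5 μM 5TMR-labelled acetylated p53-derived peptide and 120 μM NAD+, 25 min at 25 °C, pH 8 Tris-acetate buffer; formic acid quench. Deacetylation quantified by mass spectrometry against a DMSO control; EC1.5 = concentration giving 150% activation.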

SMILES | EC1.5 | Emax [%]
O=C(Nc1nccs1)c1nccn2cc(-c3ccc(F)cc3C(F)(F)F)nc12 [Compound 188] | B (EC1.5 1-25 uM) | > 200
O=C(Nc1nccs1)c1nccn2cc(-c3cccc(C(F)(F)F)c3)nc12 [Compound 138, N-(thiazol-2-yl)-2-(3-(trifluoromethyl)phenyl)imidazo[1,2-a]pyrazine-8-carboxamide] | C (EC1.5>25 uM) | < 200
O=C(Nc1nccs1)c1cccn2cc(-c3ccc(N4CCCC4)cc3)nc12 [Compound 166] | C (EC1.5>25 uM) | < 200
O=C(Nc1nc(CN2CCOCC2)cs1)c1cccn2cc(-c3cccc(C(F)(F)F)c3)nc12 [Compound 132, N-(4-(morpholinomethyl)thiazol-2-yl)-2-(3-(trifluoromethyl)phenyl)imidazo[1,2-a]pyridine-8-carboxamide] | A (EC1.5<1.0 uM) | > 200
O=C(Nc1ccccn1)c1cccn2cc(-c3cccc(CN4CCCC4)c3)nc12 [Compound 257] | B (EC1.5 1-25 uM) | > 200
O=C(Nc1cccc(CN2CCOCC2)n1)c1cccn2cc(-c3cc(F)cc(F)c3)nc12 [Compound 193] | A (EC1.5<1.0 uM) | > 200
O=C(Nc1ncc(CN2CCOCC2)s1)c1cccn2cc(-c3cccc(OC(F)(F)F)c3)nc12 [Compound 135] | B (EC1.5 1-25 uM) | > 200
Cc1nc(C)c(-c2nc3c(C(=O)Nc4ccccn4)cccn3n2)s1 [Compound 230] | C (EC1.5>25 uM) | < 200
Cc1cc(-c2nc3c(C(=O)Nc4nc(CN5CCOCC5)cs4)cccn3n2)ccn1 [Compound 216] | B (EC1.5 1-25 uM) | > 200
O=C(Nc1nc(CN2CCOCC2)cs1)c1nccn2cc(-c3ccccc3C(F)(F)F)nc12 [Compound 258] | A (EC1.5<1.0 uM) | > 200
O=C(Nc1ccccn1)c1nccn2cc(-c3ccc(F)cc3C(F)(F)F)nc12 [Compound 189] | B (EC1.5 1-25 uM) | > 200
O=C(Nc1ccccn1)c1cccn2nc(-c3ccc(OC[C@@H](O)CO)cc3C(F)F)nc12 [Compound 250] | B (EC1.5 1-25 uM) | > 200
O=C(Nc1nc(CN2CCOCC2)cs1)c1cccn2cc(-c3cc(F)cc(F)c3)nc12 [Compound 192] | A (EC1.5<1.0 uM) | > 200
O=C(Nc1ccccn1)c1cccn2cc(-c3cccc(F)c3)nc12 [Compound 155] | C (EC1.5>25 uM) | < 200
O=C(Nc1nccs1)c1cccn2nc(-c3cccc(N4CCOCC4)c3)nc12 [Compound 181] | B (EC1.5 1-25 uM) | < 200
Cc1cnc(NC(=O)c2nccn3cc(-c4ccc(F)cc4C(F)(F)F)nc23)s1 [Compound 190] | A (EC1.5<1.0 uM) | > 200
O=C(Nc1ccccn1)c1cccn2cc(-c3ccc(CN4CCCC4)cc3)nc12 [Compound 253] | B (EC1.5 1-25 uM) | > 200
O=C(Nc1cccc(CN2CCOCC2)n1)c1nccn2cc(-c3cccc(OC(F)(F)F)c3)nc12 [Compound 158] | A (EC1.5<1.0 uM) | > 200
O=C(Nc1cccn2cc(-c3cccc(C(F)(F)F)c3)nc12)c1cnccn1 [Compound 111] | B (EC1.5 1-25 uM) | < 200
O=C(Nc1cccn2cc(-c3cccc(-c4ccccc4)c3)nc12)c1ccncc1 [Compound 124] | C (EC1.5>25 uM) | < 200
O=C(Nc1cccc(CN2CCOCC2)n1)c1cccn2cc(-c3cccc(C(F)(F)F)c3)nc12 [Compound 160] | A (EC1.5<1.0 uM) | > 200
O=C(Nc1nccs1)c1cccn2nc(-c3ccc(OCC(O)CO)cc3C(F)F)nc12 (stereo in doubt) [Compound 249, (R)-2-(2-(difluoromethyl)-4-(2,3-dihydroxypropoxy)phenyl)-N-(thiazol-2-yl)-[1,2,4]triazolo[1,5-a]pyridine-8-carboxamide] | C (EC1.5>25 uM) | < 200
O=C(Nc1ccc(CCN2CCCC2)cc1)c1cccn2cc(-c3ccc(F)cc3C(F)(F)F)nc12 [Compound 218] | C (EC1.5>25 uM) | < 200

SMILES | EC1.5 | Emax [%]
O=C(Nc1nccs1)c1cccn2nc(-c3cc(Cl)ccc3C(F)(F)F)nc12 [Compound 223] | B (EC1.5 1-25 uM) | < 200
O=C(Nc1cccc(CN2CCOCC2)n1)c1cccn2cc(-c3ccc(F)cc3C(F)(F)F)nc12 [Compound 238] | A (EC1.5<1.0 uM) | > 200
O=C(Nc1ccccn1)c1cccn2nc(-c3cc(N4CCOCC4)ccc3C(F)(F)F)nc12 [Compound 222] | A (EC1.5<1.0 uM) | > 200
O=C(Nc1nccs1)c1cccn2cc(-c3cccc(OC(F)(F)F)c3)nc12 [Compound 115, N-(thiazol-2-yl)-2-(3-(trifluoromethoxy)phenyl)imidazo[1,2-a]pyridine-8-carboxamide] | B (EC1.5 1-25 uM) | < 200
Cc1cnc(NC(=O)c2nccn3cc(-c4ccccc4C(F)(F)F)nc23)s1 [Compound 173] | A (EC1.5<1.0 uM) | > 200
Cc1ccc(NC(=O)c2cccn3cc(-c4ccc(F)cc4C(F)(F)F)nc23)cc1 [Compound 141] | A (EC1.5<1.0 uM) | > 200
O=C(Nc1cccc(CN2CCOCC2)n1)c1cccn2cc(-c3cccc(Cl)c3)nc12 [Compound 234] | A (EC1.5<1.0 uM) | > 200
Cc1ccc(-c2cn3ccnc(C(=O)Nc4nc(CN5CCOCC5)cs4)c3n2)cn1 [Compound 164] | B (EC1.5 1-25 uM) | < 200
O=C(Nc1nc(CN2CCOCC2)cs1)c1cccn2cc(-c3cccc(F)c3F)nc12 [Compound 231] | B (EC1.5 1-25 uM) | < 200
Cc1csc(NC(=O)c2cccn3cc(-c4ccccc4)nc23)n1 [Compound 107] | B (EC1.5 1-25 uM) | > 200
O=C(Nc1cnccn1)c1cccn2cc(-c3cccc(C(F)(F)F)c3)nc12 [Compound 118] | B (EC1.5 1-25 uM) | < 200
Cc1nc(C)c(-c2nc3c(C(=O)Nc4nccs4)cccn3n2)s1 [Compound 229] | C (EC1.5>25 uM) | < 200
O=C(Nc1cccnn1)c1nccn2cc(-c3ccccc3C(F)(F)F)nc12 [Compound 174] | B (EC1.5 1-25 uM) | > 200
Cc1ccc(-c2cn3ccnc(C(=O)Nc4nccs4)c3n2)cn1 [Compound 162] | C (EC1.5>25 uM) | < 200
O=C(Nc1cccn2cc(-c3cccc(C(F)(F)F)c3)nc12)c1cccnc1 [Compound 120] | C (EC1.5>25 uM) | < 200
O=C(Nc1nccs1)c1cccn2cc(-c3ccccc3F)nc12 [Compound 152] | C (EC1.5>25 uM) | < 200
O=C(Nc1ccccn1)c1cccn2cc(-c3ccccc3F)nc12 [Compound 153] | C (EC1.5>25 uM) | < 200
O=C(Nc1nc(CN2CCOCC2)cs1)c1nccn2cc(-c3ccc(F)c(F)c3)nc12 [Compound 194] | B (EC1.5 1-25 uM) | > 200
O=C(Nc1cccn2cc(-c3cccc(-c4ccccc4)c3)nc12)c1cscn1 [Compound 121] | C (EC1.5>25 uM) | < 200
O=C(Nc1cnccn1)c1cccn2cc(-c3ccccc3)nc12 [Compound 109] | B (EC1.5 1-25 uM) | < 200
O=C(Nc1cccc(CN2CCOCC2)n1)c1cccn2cc(-c3ccc(F)c(Cl)c3)nc12 [Compound 236] | A (EC1.5<1.0 uM) | > 200
Cc1ccc(-c2nc3c(C(=O)Nc4ccccn4)cccn3n2)cn1 [Compound 211] | C (EC1.5>25 uM) | < 200
O=C(Nc1ccccn1)c1nccn2cc(-c3cccc(OC(F)(F)F)c3)nc12 [Compound 143] | C (EC1.5>25 uM) | < 200
